One block for each compound: values may come before it.
Experiments:
[1] = biological target: T1, BTK (Homo sapiens (Human), UniProt Q06187); assay: In Vitro BTK Kinase Assay: BTK-POLYGAT-LS ASSAY; format: biochemical; conditions: fluorescein-labeled polyGAT peptide 100 nM, BTK enzyme 0.25 nM, 30 minutes, TRF
Procedure: In Vitro BTK Kinase Assay: BTK-POLYGAT-LS ASSAY
The purpose of the BTK in vitro assay is to determine compound potency against BTK through the measurement of IC50. […] For a typical assay, a […] aliquot of a ATP/peptide master mix (final concentration; ATP […], polyGAT 100 nM) in kinase buffer (10 mM Tris-HCl pH 7.5, 10 mM MgCl2, 200 μM Na3PO4, 5 mM DTT, 0.01% Triton X-100, and 0.2 mg/ml casein) is added to each well. […] The assay is incubated for 30 minutes before being stopped with 28 μL of a 50 mM EDTA solution. […] The plate is covered and incubated for 45 minutes at room temperature. Time resolved fluorescence (TRF) on Molecular Devices M5 (332 nm excitation; 488 nm emission; 518 nm fluorescein emission) is measured.

[2] = biological target: T1, BTK; assay: In Vitro PD Assay in Human Whole Blood (pBTK assay); format: cell-based; conditions: human heparinized whole blood, 37° C. for 30 min, total BTK capture and phosphotyrosine detection (ECL)
Procedure: In Vitro PD Assay in Human Whole Blood
Human heparinized venous blood was purchased from Bioreclamation, Inc. or SeraCare Life Sciences and shipped overnight. Whole blood was aliquoted into 96-well plate and “spiked” with serial dilutions of test compound in DMSO or with DMSO without drug. The final concentration of DMSO in all wells was 0.1%. The plate was incubated at 37° C. for 30 min. Lysis buffer containing protease and phosphatase inhibitors was added to the drug-containing samples and one of the DMSO-only samples (+PPi, high control), while lysis buffer containing protease inhibitors was added to the other DMSO-only samples (−PPi, low control). All of the lysed whole blood samples were subjected to the total BTK capture and phosphotyrosine detection method described in US20160311802, incorporated herein by reference.

T1 sequence (Q06187 whole entry): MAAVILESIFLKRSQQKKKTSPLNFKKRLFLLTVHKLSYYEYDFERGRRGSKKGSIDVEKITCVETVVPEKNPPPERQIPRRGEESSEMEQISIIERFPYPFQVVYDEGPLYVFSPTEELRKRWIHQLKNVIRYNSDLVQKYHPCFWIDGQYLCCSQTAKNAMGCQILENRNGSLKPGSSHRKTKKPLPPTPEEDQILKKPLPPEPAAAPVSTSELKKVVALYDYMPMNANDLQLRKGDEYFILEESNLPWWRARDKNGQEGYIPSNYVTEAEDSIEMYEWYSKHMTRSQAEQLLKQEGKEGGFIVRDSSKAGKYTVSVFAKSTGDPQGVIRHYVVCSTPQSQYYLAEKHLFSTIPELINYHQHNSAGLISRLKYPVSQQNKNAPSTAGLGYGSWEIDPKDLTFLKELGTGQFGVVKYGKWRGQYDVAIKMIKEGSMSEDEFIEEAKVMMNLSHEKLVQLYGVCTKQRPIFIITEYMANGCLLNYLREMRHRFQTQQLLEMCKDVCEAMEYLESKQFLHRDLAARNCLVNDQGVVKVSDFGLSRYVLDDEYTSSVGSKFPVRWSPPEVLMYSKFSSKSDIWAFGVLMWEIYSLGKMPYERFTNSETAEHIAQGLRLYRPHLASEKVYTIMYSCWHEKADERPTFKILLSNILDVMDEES

Compound: Cc1cc(-c2ncnc(Nc3ccn(C)n3)n2)ccc1CNC(=O)c1nc(C(C)(C)C)no1 [Compound 2, 3-(tert-butyl)-N-(2-methyl-4-(4-((1-methyl-1H-pyrazol-3-yl)amino)-1,3,5-triazin-2-yl)benzyl)-1,2,4-oxadiazole-5-carboxamide]
- IC50 [1]: < 1 nM
- IC50 [2]: 500 to 10000 nM

Compound: Cc1cc(-c2ncnc(Nc3ccn(C)n3)n2)ccc1CNC(=O)c1cnc(C(C)(C)C)o1 [Compound 3, 2-(tert-butyl)-N-(2-methyl-4-(4-((1-methyl-1H-pyrazol-3-yl)amino)-1,3,5-triazin-2-yl)benzyl)oxazole-5-carboxamide]
- IC50 [1]: 1 to 10 nM
- IC50 [2]: 500 to 10000 nM

Compound: Cc1cc(-c2ncnc(Nc3ccn(C)n3)n2)ccc1CNC(=O)c1nn(C(C)(C)C)cc1F [Compound 4, 1-(tert-butyl)-4-fluoro-N-(2-methyl-4-(4-((1-methyl-1H-pyrazol-3-yl)amino)-1,3,5-triazin-2-yl)benzyl)-1H-pyrazole-3-carboxamide]
- IC50 [1]: 1 to 10 nM
- IC50 [2]: > 10000 nM

Compound: Cn1ccc(Nc2ncnc(-c3ccc(CNC(=O)c4noc(C(C)(C)C)n4)c(Cl)c3)n2)n1 [Compound 5, 5-(tert-butyl)-N-(2-chloro-4-(4-((1-methyl-1H-pyrazol-3-yl)amino)-1,3,5-triazin-2-yl)benzyl)-1,2,4-oxadiazole-3-carboxamide]
- IC50 [1]: 1 to 10 nM
- IC50 [2]: 500 to 10000 nM

Compound: Cn1ccc(Nc2ncnc(-c3ccc(CNC(=O)c4nc(C(C)(C)C)no4)c(Cl)c3)n2)n1 [Compound 6, 3-(tert-butyl)-N-(2-chloro-4-(4-((1-methyl-1H-pyrazol-3-yl)amino)-1,3,5-triazin-2-yl)benzyl)-1,2,4-oxadiazole-5-carboxamide]
- IC50 [1]: < 1 nM
- IC50 [2]: 500 to 10000 nM

Compound: Cn1ccc(Nc2ncnc(-c3ccc(CNC(=O)c4noc(C(C)(C)C)n4)c(C(F)(F)F)c3)n2)n1 [Compound 7, 5-(tert-butyl)-N-(4-(4-((1-methyl-1H-pyrazol-3-yl)amino)-1,3,5-triazin-2-yl)-2-(trifluoromethyl)benzyl)-1,2,4-oxadiazole-3-carboxamide]
- IC50 [1]: 1 to 10 nM

Compound: Cn1ccc(Nc2ncnc(-c3ccc(CNC(=O)c4nc(C(C)(C)C)no4)c(C(F)(F)F)c3)n2)n1 [Compound 8, 3-(tert-butyl)-N-(4-(4-((1-methyl-1H-pyrazol-3-yl)amino)-1,3,5-triazin-2-yl)-2-(trifluoromethyl)benzyl)-1,2,4-oxadiazole-5-carboxamide]
- IC50 [1]: 1 to 10 nM

Compound: Cc1c(CNC(=O)c2noc(C(C)(C)C)n2)ccc(-c2ncnc(Nc3ccn(C)n3)n2)c1F [Compound 9, 5-(tert-butyl)-N-(3-fluoro-2-methyl-4-(4-((1-methyl-1H-pyrazol-3-yl)amino)-1,3,5-triazin-2-yl)benzyl)-1,2,4-oxadiazole-3-carboxamide]
- IC50 [1]: < 1 nM
- IC50 [2]: 100 to 500 nM

Compound: Cc1c(CNC(=O)c2nc(C(C)(C)C)no2)ccc(-c2ncnc(Nc3ccn(C)n3)n2)c1F [Compound 10, 3-(tert-butyl)-N-(3-fluoro-2-methyl-4-(4-((1-methyl-1H-pyrazol-3-yl)amino)-1,3,5-triazin-2-yl)benzyl)-1,2,4-oxadiazole-5-carboxamide]
- IC50 [1]: < 1 nM

Compound: Cc1cc(-c2ncnc(Nc3cnn(C)c3)n2)ccc1CNC(=O)c1noc(C(C)(C)C)n1 [Compound 11, 5-(tert-butyl)-N-(2-methyl-4-(4-((1-methyl-1H-pyrazol-4-yl)amino)-1,3,5-triazin-2-yl)benzyl)-1,2,4-oxadiazole-3-carboxamide]
- IC50 [1]: < 1 nM
- IC50 [2]: 100 to 500 nM

Compound: Cc1cc(-c2ncnc(Nc3cnn(C)c3)n2)ccc1CNC(=O)c1nc(C(C)(C)C)no1 [Compound 12, 3-(tert-butyl)-N-(2-methyl-4-(4-((1-methyl-1H-pyrazol-4-yl)amino)-1,3,5-triazin-2-yl)benzyl)-1,2,4-oxadiazole-5-carboxamide]
- IC50 [1]: < 1 nM
- IC50 [2]: 100 to 500 nM

Compound: Cn1cc(Nc2ncnc(-c3ccc(CNC(=O)c4nc(C(C)(C)C)no4)c(C(F)(F)F)c3)n2)cn1 [Compound 18, 3-(tert-butyl)-N-(4-(4-((1-methyl-1H-pyrazol-4-yl)amino)-1,3,5-triazin-2-yl)-2-(trifluoromethyl)benzyl)-1,2,4-oxadiazole-5-carboxamide]
- IC50 [1]: < 1 nM

Compound: Cn1ccc(Nc2ncnc(-c3ccc(CNC(=O)c4noc(C(C)(C)C)n4)c(C(F)(F)F)c3F)n2)n1 [Compound 19, 5-(tert-butyl)-N-(3-fluoro-4-(4-((1-methyl-1H-pyrazol-3-yl)amino)-1,3,5-triazin-2-yl)-2-(trifluoromethyl)benzyl)-1,2,4-oxadiazole-3-carboxamide]
- IC50 [1]: 1 to 10 nM

- IC50 [2]: < 100 nM
Compound: Cn1cc(Nc2ncnc(-c3ccc4c(c3)CN(C3COC3)CC[C@H]4NC(=O)c3cn(C(C)(C)C)nn3)n2)cn1 [Compound 24, 1-tert-butyl-N-[(5R)-8-[4-[(1-methylpyrazol-4-yl)amino]-1,3,5-triazin-2-yl]-2-(oxetan-3-yl)-1,3,4,5-tetrahydro-2-benzazepin-5-yl]triazole-4-carboxamide]

- IC50 [2]: < 100 nM
Compound: Cn1ccc(Nc2ncnc(-c3ccc4c(c3)CN(CC(F)(F)F)CC[C@H]4NC(=O)c3noc(C(C)(C)C)n3)n2)n1 [Compound 25, 5-tert-butyl-N-[(5R)-8-[4-[(1-methylpyrazol-3-yl)amino]-1,3,5-triazin-2-yl]-2-(2,2,2-trifluoroethyl)-1,3,4,5-tetrahydro-2-benzazepin-5-yl]-1,2,4-oxadiazole-3-carboxamide]

- IC50 [2]: 100 to 500 nM
Compound: Cc1cc(-c2ncnc(Nc3cnn(C)c3)n2)ccc1CNC(=O)c1cc(C(C)(C)C)on1 [Compound 38]

- IC50 [2]: 500 to 10000 nM
Compound: Cc1cc(-c2ncnc(Nc3cnn(C)c3)n2)ccc1CNC(=O)c1noc(C2[C@@H](C)[C@H]2C)n1 (stereo partly drawn) [Compound 41, 5-(2,3-cis-dimethylcyclopropyl)-N-(2-methyl-4-(4-((1-methyl-1H-pyrazol-4-yl)amino)-1,3,5-triazin-2-yl)benzyl)-1,2,4-oxadiazole-3-carboxamide]

Compound: Cn1ccc(Nc2ncnc(-c3ccc(CNC(=O)c4noc(C(C)(C)C)n4)c(CC(F)F)c3)n2)n1 [Compound 67, 5-(tert-butyl)-N-(2-(2,2-difluoroethyl)-4-(4-((1-methyl-1H-pyrazol-3-yl)amino)-1,3,5-triazin-2-yl)benzyl)-1,2,4-oxadiazole-3-carboxamide]
- IC50 [1]: 1 to 10 nM

- IC50 [2]: < 100 nM
Compound: C[C@@H](NC(=O)c1nc(C(C)(C)C)no1)c1ccc(-c2ncnc(Nc3cnn(C)c3)n2)c(F)c1Cl [Compound 70, (R)-3-(tert-butyl)-N-(1-(2-chloro-3-fluoro-4-(4-((1-methyl-1H-pyrazol-4-yl)amino)-1,3,5-triazin-2-yl)phenyl)ethyl)-1,2,4-oxadiazole-5-carboxamide]

Compound: C[C@@H](NC(=O)c1nc(C(C)(C)C)no1)c1ccc(-c2ncnc(Nc3ccn(C)n3)n2)c(F)c1C(F)F [Compound 83, (R)-3-(tert-butyl)-N-(1-(2-(difluoromethyl)-3-fluoro-4-(4-((1-methyl-1H-pyrazol-3-yl)amino)-1,3,5-triazin-2-yl)phenyl)ethyl)-1,2,4-oxadiazole-5-carboxamide]
- IC50 [1]: 1 to 10 nM

Compound: Cc1cc(-c2ncnc(Nc3cnn(C)c3)n2)ccc1CNC(=O)c1nnc(C(C)(C)C)o1 [Compound 110, 5-(tert-butyl)-N-(2-methyl-4-(4-((1-methyl-1H-pyrazol-4-yl)amino)-1,3,5-triazin-2-yl)benzyl)-1,3,4-oxadiazole-2-carboxamide]
- IC50 [1]: 1 to 10 nM

— patent US10899753B2, “Inhibiting agents for Bruton's tyrosine kinase” (BIOGEN MA INC., priority 2018, dated 2021)
